In this series the test system is CCRIS mutagenicity, Ames/micronucleus/aberration tests. Put plainly: CCRIS mutagenicity studies.
[1] abbreviates: Test System: AMES SALMONELLA TYPHIMURIUM, Strain/Indicator: TA98, Metabolic Activation: NONE, Method: STANDARD PLATE.
[2] abbreviates: Test System: AMES SALMONELLA TYPHIMURIUM, Strain/Indicator: TA100, Metabolic Activation: NONE, Method: STANDARD PLATE.
Where [3] appears, read: Test System: AMES SALMONELLA TYPHIMURIUM, Strain/Indicator: TA98, Metabolic Activation: NONE, Method: PREINCUBATION
The mark [4] stands for this setting: Test System: AMES SALMONELLA TYPHIMURIUM, Strain/Indicator: TA100, Metabolic Activation: NONE, Method: PREINCUBATION
The mark [5] stands for this setting: Test System: AMES SALMONELLA TYPHIMURIUM, Strain/Indicator: TA100, Metabolic Activation: RAT, LIVER, S-9, PCB, Method: PREINCUBATION

The source made the active and inactive calls. How the calls were made is not given here.

As to `O=[N+]([O-])c1cccc(NS(=O)(=O)c2cccc3cccnc23)c1`, the mutagenic call is “inactive; negative” under setting [1]; “inactive; negative” (Test System: AMES SALMONELLA TYPHIMURIUM, Strain/Indicator: TA98, Metabolic Activation: RAT, LIVER, S-9, AROCLOR 1254, Method: STANDARD PLATE); “inactive; negative” under setting [2]; “inactive; negative” (Test System: AMES SALMONELLA TYPHIMURIUM, Strain/Indicator: TA100, Metabolic Activation: RAT, LIVER, S-9, AROCLOR 1254, Method: STANDARD PLATE); “inactive; negative” (Test System: AMES SALMONELLA TYPHIMURIUM, Strain/Indicator: TA1535, Metabolic Activation: NONE, Method: STANDARD PLATE); “inactive; negative” (Test System: AMES SALMONELLA TYPHIMURIUM, Strain/Indicator: TA1535, Metabolic Activation: RAT, LIVER, S-9, AROCLOR 1254, Method: STANDARD PLATE). The mutagenic call (Test System: AMES SALMONELLA TYPHIMURIUM, Strain/Indicator: TA1537, Metabolic Activation: NONE, Method: STANDARD PLATE) was “inactive; negative” and the mutagenic call (Test System: AMES SALMONELLA TYPHIMURIUM, Strain/Indicator: TA1537, Metabolic Activation: RAT, LIVER, S-9, AROCLOR 1254, Method: STANDARD PLATE) was “inactive; negative”.

`ClCc1ccc2ccc3cccc4ccc1c2c34`: the mutagenic call was “active; positive” (Test System: AMES SALMONELLA TYPHIMURIUM, Strain/Indicator: TA98, Metabolic Activation: NONE); “active; positive” under setting [3]; “active; positive” under setting [1]; “active; positive” under setting [2].

For the compound `COc1nncc2cccnc12`, the mutagenic call under setting [3] was “inactive; negative”; the mutagenic call (Test System: AMES SALMONELLA TYPHIMURIUM, Strain/Indicator: TA98, Metabolic Activation: RAT, LIVER, S-9, PCB, Method: PREINCUBATION) is “inactive; negative”; the mutagenic call under setting [4] is “inactive; negative”; the mutagenic call under setting [5] is “inactive; negative”.

Consider `O=C(CCCCl)N=c1sn(C(=O)CCCCl)c2ccc(Cl)cc12`, for which the mutagenic call (Test System: AMES SALMONELLA TYPHIMURIUM, Strain/Indicator: TA100, Metabolic Activation: S-9, Method: STANDARD PLATE) is “active; positive”.

On to `CC(=O)CN(C)N=O`, for which the mutagenic call is, setting by setting: (Test System: AMES SALMONELLA TYPHIMURIUM, Strain/Indicator: TA100, Metabolic Activation: HAMSTER, LIVER, S-9, 3-METHYLCHOLANTHRENE, Method: PREINCUBATION) “active; positive”; (Test System: AMES SALMONELLA TYPHIMURIUM, Strain/Indicator: TA100, Metabolic Activation: HAMSTER, LIVER, S-9, PHENOBARBITAL, Method: PREINCUBATION) “active; positive”; (Test System: AMES SALMONELLA TYPHIMURIUM, Strain/Indicator: TA100, Metabolic Activation: HUMAN, LIVER, S-9, Method: PREINCUBATION) “inactive; negative”; (Test System: AMES SALMONELLA TYPHIMURIUM, Strain/Indicator: TA100, Metabolic Activation: MONKEY, LIVER, S-9, Method: PREINCUBATION) “active; positive”; (Test System: AMES SALMONELLA TYPHIMURIUM, Strain/Indicator: TA100, Metabolic Activation: MOUSE, LIVER, S-9, 3-METHYLCHOLANTHRENE, Method: PREINCUBATION) “active; positive”; (Test System: AMES SALMONELLA TYPHIMURIUM, Strain/Indicator: TA100, Metabolic Activation: MOUSE, LIVER, S-9, PHENOBARBITAL, Method: PREINCUBATION) “active; positive”. In addition, the mutagenic call was “active; positive” (Test System: AMES SALMONELLA TYPHIMURIUM, Strain/Indicator: TA100, Metabolic Activation: MOUSE, LIVER, S-9, Method: PREINCUBATION); “inactive; negative” under setting [4]; “active; positive” (Test System: AMES SALMONELLA TYPHIMURIUM, Strain/Indicator: TA100, Metabolic Activation: RABBIT, LIVER, S-9, Method: PREINCUBATION); “inactive; negative” (Test System: AMES SALMONELLA TYPHIMURIUM, Strain/Indicator: TA100, Metabolic Activation: RAT, LIVER, CYTOSOL, PCB, Method: PREINCUBATION); “active; positive” (Test System: AMES SALMONELLA TYPHIMURIUM, Strain/Indicator: TA100, Metabolic Activation: RAT, LIVER, MICROSOMES AND CYTOSOL, PCB, Method: PREINCUBATION); “active; positive” (Test System: AMES SALMONELLA TYPHIMURIUM, Strain/Indicator: TA100, Metabolic Activation: RAT, LIVER, MICROSOMES AND G6PDH, PCB, Method: PREINCUBATION). In addition, the mutagenic call was “active; positive” (Test System: AMES SALMONELLA TYPHIMURIUM, Strain/Indicator: TA100, Metabolic Activation: RAT, LIVER, MICROSOMES, PCB, Method: PREINCUBATION); “inactive; negative” (Test System: AMES SALMONELLA TYPHIMURIUM, Strain/Indicator: TA100, Metabolic Activation: RAT, LIVER, S-9 (HEATED), PCB, Method: PREINCUBATION); “inactive; negative” (Test System: AMES SALMONELLA TYPHIMURIUM, Strain/Indicator: TA100, Metabolic Activation: RAT, LIVER, S-9, 3-METHYLCHOLANTHRENE, Method: PREINCUBATION); “active; positive” under setting [5]; “active; positive” (Test System: AMES SALMONELLA TYPHIMURIUM, Strain/Indicator: TA100, Metabolic Activation: RAT, LIVER, S-9, PHENOBARBITAL, Method: PREINCUBATION); “inactive; negative” (Test System: AMES SALMONELLA TYPHIMURIUM, Strain/Indicator: TA100, Metabolic Activation: RAT, LIVER, S-9 WITHOUT NADP+, PCB, Method: PREINCUBATION). Moreover, the mutagenic call was “active; positive” (Test System: AMES SALMONELLA TYPHIMURIUM, Strain/Indicator: TA100, Method: PREINCUBATION) and “active; positive” (Test System: CHINESE HAMSTER V-79, Strain/Indicator: V-79/OUABAIN, Metabolic Activation: HAMSTER, HEPATOCYTES, Method: CELL-MEDIATED).
